Source: US6914045B2, “Glycopeptide antibiotics” (Wyeth Holdings Corporation, priority 2001, dated 2005)
≈ marks a conversion by molar mass, not a printed value.

Assays:
Assay in all cases: in vitro antibacterial evaluation, MIC by broth dilution
Type in all cases: cell-based
[1] = tested on: Enterococcus sp.; conditions: broth dilution, 18 hours at 35° C.
Method in brief: (§1)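 Broth dilution per NCCLS M7-A2 in Mueller-Hinton II medium, inoculum 5×10^5 CFU/mL, antibiotic range 64-0.06 μg/mL. MIC taken as lowest concentration inhibiting growth; Gram-positive panel includes recent clinical isolates resistant to methicillin, penicillin and/or vancomycin.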

[2] = tested on: Staphylococcus sp.; conditions: broth dilution, 18 hours at 35° C.
Method in brief: as §1

[3] = tested on: Escherichia coli; conditions: 18 hours at 35° C.
Method in brief: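 Read-out: the lowest concentration at which the test strain fails to grow. Serial dilutions (64-0.06 μg/mL) in Muller-Hinton II […], 5×10^5 CFU/mL inoculum, NCCLS M7-A2 procedure.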

[4] = tested on: Streptococcus sp.; conditions: broth dilution, 18 hours at 35° C.
Method in brief: as §1

## CC(c1ccccc1)C1NC(=O)CNC(=O)C(CO)NC(=O)C(C(O)C2CNC(=N)N2C2OC(CO)C(O)C(O)C2O)NC(=O)C(C(O)C2CNC(=N)N2)NC(=O)C(Cc2ccc(OC3OC(CO)C(OC4OC(CO)C(O)C(O)C4O)C(O)C3O)c(N)c2)NC1=O (stereo not drawn) [Example 287, Cyclo[glycyl-β-methylphenylalanyl-2-amino-O-(4-O-hexopyranosylhexopyranosyl)tyrosyl-3-(2-iminoimidazolidin-4-yl)seryl-3-(3-hexopyranosyl-2-iminoimidazolidin-4-yl)serylseryl]]
[1]; Enterococcus avium (GC 4558)
  MIC Enterococcus avium (GC 4558): 64 µg/mL (≈ 48.8 µM)
[1]; Enterococcus faecalis (ATCC 29212)
  MIC Enterococcus faecalis (ATCC 29212): >64 µg/mL
[1]; Enterococcus faecalis (GC 4553)
  MIC Enterococcus faecalis (GC 4553): >64 µg/mL
[1]; Enterococcus faecalis (GC 4554)
  MIC Enterococcus faecalis (GC 4554): >64 µg/mL
[1]; Enterococcus faecalis (GC 6189)
  MIC Enterococcus faecalis (GC 6189): >64 µg/mL
[1]; Enterococcus faecium (GC 2243)
  MIC Enterococcus faecium (GC 2243): >64 µg/mL
[1]; Enterococcus faecium (GC 4556)
  MIC Enterococcus faecium (GC 4556): >64 µg/mL
[1]; Enterococcus faecium (GC 4557)
  MIC Enterococcus faecium (GC 4557): 64 µg/mL (≈ 48.8 µM)
[1]; strain ATCC 29212
  MIC Enterococcus faecalis (ATCC 29212): >64 µg/mL
[1]; strain GC 2242
  MIC Enterococcus faecalis (GC 2242): >64 µg/mL
[1]; strain GC 2243
  MIC Enterococcus faecium (GC 2243): >64 µg/mL
[1]; strain GC 2691
  MIC Enterococcus faecalis (GC 2691): >64 µg/mL
[1]; strain GC 3059
  MIC Enterococcus faecalis (GC 3059): >64 µg/mL
[1]; strain GC 4552
  MIC Enterococcus faecalis (GC 4552): >64 µg/mL
[1]; strain GC 4553
  MIC Enterococcus faecalis (GC 4553): >64 µg/mL
[1]; strain GC 4554
  MIC Enterococcus faecalis (GC 4554): >64 µg/mL
[1]; strain GC 4556
  MIC Enterococcus faecium (GC 4556): >64 µg/mL
[1]; strain GC 4557
  MIC Enterococcus faecium (GC 4557): 64 µg/mL (≈ 48.8 µM)
[1]; strain GC 4558
  MIC Enterococcus avium (GC 4558): 64 µg/mL (≈ 48.8 µM)
[1]; strain GC 6189
  MIC Enterococcus faecalis (GC 6189): >64 µg/mL
[2]
  MIC Coagulase Negative Staphylococcus (GC 4547): >64 µg/mL
  MIC Coagulase Negative Staphylococcus (GC 4548): >64 µg/mL
  MIC Coagulase Negative Staphylococcus (GC 4549): >64 µg/mL
  MIC Coagulase Negative Staphylococcus (GC 4551): >64 µg/mL
  MIC Coagulase Negative Staphylococcus (GC 6257): >64 µg/mL
  MIC Staphylococcus aureus (ATCC 29213): >64 µg/mL
  MIC Staphylococcus aureus (GC 1131): >64 µg/mL
  MIC Staphylococcus aureus (GC 3051): >64 µg/mL
  MIC Staphylococcus aureus (GC 3053): >64 µg/mL
  MIC Staphylococcus aureus (GC 4541): >64 µg/mL
  MIC Staphylococcus aureus (GC 4542): >64 µg/mL
  MIC Staphylococcus aureus (GC 4544): >64 µg/mL
  MIC Staphylococcus aureus (GC 4545): >64 µg/mL
  MIC Staphylococcus aureus-SMITH (GC 4543): >64 µg/mL
  MIC Staphylococcus haemolyticus (GC 4546): >64 µg/mL
[2]; strain ATCC 29213
  MIC Staphylococcus aureus (ATCC 29213): >64 µg/mL
[2]; strain GC 1131
  MIC Staphylococcus aureus (GC 1131): >64 µg/mL
[2]; strain GC 3051
  MIC Staphylococcus aureus (GC 3051): >64 µg/mL
[2]; strain GC 3053
  MIC Staphylococcus aureus (GC 3053): >64 µg/mL
[2]; strain GC 4541
  MIC Staphylococcus aureus (GC 4541): >64 µg/mL
[2]; strain GC 4542
  MIC Staphylococcus aureus (GC 4542): >64 µg/mL
[2]; strain GC 4544
  MIC Staphylococcus aureus (GC 4544): >64 µg/mL
[2]; strain GC 4545
  MIC Staphylococcus aureus (GC 4545): >64 µg/mL
[2]; strain GC 4546
  MIC Staphylococcus haemolyticus (GC 4546): >64 µg/mL
[2]; strain GC 4547
  MIC Coagulase Negative Staphylococcus (GC 4547): >64 µg/mL
[2]; strain GC 4548
  MIC Coagulase Negative Staphylococcus (GC 4548): >64 µg/mL
[2]; strain GC 4549
  MIC Coagulase Negative Staphylococcus (GC 4549): >64 µg/mL
[2]; strain GC 4551
  MIC Coagulase Negative Staphylococcus (GC 4551): >64 µg/mL
[2]; strain GC 6257
  MIC Coagulase Negative Staphylococcus (GC 6257): >64 µg/mL
[2]; strain SMITH GC 4543
  MIC Staphylococcus aureus-SMITH (GC 4543): >64 µg/mL
[3]; Escherichia coli (ATCC 25922)
  MIC Escherichia coli (ATCC 25922): >64 µg/mL
[3]; Escherichia coli (GC 4559)
  MIC Escherichia coli (GC 4559): >64 µg/mL
[3]; Escherichia coli (GC 4560)
  MIC Escherichia coli (GC 4560): >64 µg/mL
[4]; strain ATCC 6301
  MIC Streptococcus pneumoniae (ATCC 6301): 64 µg/mL (≈ 48.8 µM)
[4]; strain GC 1894
  MIC Streptococcus pneumoniae (GC 1894): 64 µg/mL (≈ 48.8 µM)
[4]; strain GC 4563
  MIC Streptococcus pyogenes (GC 4563): >64 µg/mL
[4]; strain GC 4564
  MIC Streptococcus agalactiae (GC 4564): >64 µg/mL
[4]; strain GC 4565
  MIC Streptococcus pneumoniae (GC 4565): 64 µg/mL (≈ 48.8 µM)
